Experimental data as given in paper PMC10489644, “In Vitro Evaluation of the Potential for Drug Interactions by Salidroside” (Nutrients, 2023).
“Also recorded” adds a separate entry of the source.

How the values were obtained:
[1] = in vitro; conditions: Sprague-Dawley (SD), rat, plasma, pH 7.4
[2] = test system: rat CYP enzymes (probe drug cocktail); set-up: method as in PMID 29796228; conditions: salidroside 30 mg/kg/day, eight daily doses, day 8; cited from earlier work
[3] = biological target: T1, CYP2C8 (Homo sapiens, UniProt P10632); test: biochemical
T1 sequence (P10632 1-490): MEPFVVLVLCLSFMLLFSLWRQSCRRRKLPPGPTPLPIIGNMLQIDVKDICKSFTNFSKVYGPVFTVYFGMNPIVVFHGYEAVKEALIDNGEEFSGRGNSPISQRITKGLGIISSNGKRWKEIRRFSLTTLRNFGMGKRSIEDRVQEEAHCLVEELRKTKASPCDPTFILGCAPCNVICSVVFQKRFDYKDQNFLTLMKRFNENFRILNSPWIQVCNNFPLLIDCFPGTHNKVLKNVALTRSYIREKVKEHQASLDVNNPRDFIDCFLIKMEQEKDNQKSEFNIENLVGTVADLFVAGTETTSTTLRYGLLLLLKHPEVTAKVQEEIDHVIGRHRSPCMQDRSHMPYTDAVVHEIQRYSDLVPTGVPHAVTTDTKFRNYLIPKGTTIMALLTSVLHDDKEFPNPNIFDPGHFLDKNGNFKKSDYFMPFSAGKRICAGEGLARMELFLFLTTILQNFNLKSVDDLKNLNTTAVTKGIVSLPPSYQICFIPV

[4] = test system: CYP2B6; test: in vitro; conditions: human; for % of Positive Control / Mean Enzyme Activity: 48 h
Protocol: (§1) The sandwich medium was removed, and the hepatocytes were treated with incubation solutions containing salidroside (1, 5, 10, and 30 µM), vehicle (0.1% DMSO), or positive inducers in triplicate for 24 h after the cultures were established. The incubation solution was aspirated and replaced with incubation solution containing the same concentrations of salidroside, vehicle, or positive inducers for an additional 24 h. The total treatment period was 48 h. After the treatment period of 48 h, the incubation solution was aspirated. Hepatocytes were washed twice with pre-warmed HBSS containing 10 mM HEPES (HBSS I) and then the remaining solution was aspirated. Hepatocytes were washed once with pre-warmed HBSS I and incubated with 140 μL of RLT (lysis buffer from RNeasy 96 Kit) supplemented with 1% β-mercaptoethanol. Plates were then stored at −70 °C in a freezer until RNA analysis. Before RNA extraction, the frozen plate was thawed, and cell lysates were transferred to 96-well plates. RNA isolation was performed using a QIAcube RNA extraction system. Reverse transcription was performed to obtain cDNA. Quantification of the selective genes by real-time quantitative polymerase chain reaction (qPCR) was performed with TaqMan universal PCR Master Mix on the Bio-rad CFX384 TouchTM Real-Time PCR System. The relative change in the mRNA level of the selected target genes induced by each test compound was expressed in relation to the vehicle control sample, and fold changes in gene expression were determined by the ΔΔCt method.
(§2) Enzyme activity (%) = PAR with compound/PAR vehicle × 100.

[5] = test system: CYP1A2; test: in vitro; conditions: human; for % of Positive Control / Mean Enzyme Activity: 48 h
Protocol: as §1, §2

[6] = biological target: T2, CYP2D6 (Homo sapiens, UniProt P10635); test: biochemical
T2 sequence (P10635 whole entry): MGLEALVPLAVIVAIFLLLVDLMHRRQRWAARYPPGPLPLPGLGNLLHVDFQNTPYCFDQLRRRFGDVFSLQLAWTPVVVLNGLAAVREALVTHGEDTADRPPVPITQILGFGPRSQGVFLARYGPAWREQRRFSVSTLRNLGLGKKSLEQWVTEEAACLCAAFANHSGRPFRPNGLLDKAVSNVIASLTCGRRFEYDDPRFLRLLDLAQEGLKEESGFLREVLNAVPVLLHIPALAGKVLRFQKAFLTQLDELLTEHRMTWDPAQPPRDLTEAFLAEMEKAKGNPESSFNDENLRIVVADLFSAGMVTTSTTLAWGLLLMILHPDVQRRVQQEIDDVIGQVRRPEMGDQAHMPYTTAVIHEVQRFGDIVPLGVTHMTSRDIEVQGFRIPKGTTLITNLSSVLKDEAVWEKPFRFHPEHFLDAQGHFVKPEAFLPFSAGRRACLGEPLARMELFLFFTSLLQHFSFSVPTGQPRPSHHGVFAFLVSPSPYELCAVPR

[7] = biological target: T2, CYP2D6; conditions: microsomes
[8] = biological target: T3, OATP1B3 (Homo sapiens, UniProt Q9NPD5); test: Uptake transport inhibition in HEK293-OATP1B3 cells
T3 sequence (Q9NPD5 1-702): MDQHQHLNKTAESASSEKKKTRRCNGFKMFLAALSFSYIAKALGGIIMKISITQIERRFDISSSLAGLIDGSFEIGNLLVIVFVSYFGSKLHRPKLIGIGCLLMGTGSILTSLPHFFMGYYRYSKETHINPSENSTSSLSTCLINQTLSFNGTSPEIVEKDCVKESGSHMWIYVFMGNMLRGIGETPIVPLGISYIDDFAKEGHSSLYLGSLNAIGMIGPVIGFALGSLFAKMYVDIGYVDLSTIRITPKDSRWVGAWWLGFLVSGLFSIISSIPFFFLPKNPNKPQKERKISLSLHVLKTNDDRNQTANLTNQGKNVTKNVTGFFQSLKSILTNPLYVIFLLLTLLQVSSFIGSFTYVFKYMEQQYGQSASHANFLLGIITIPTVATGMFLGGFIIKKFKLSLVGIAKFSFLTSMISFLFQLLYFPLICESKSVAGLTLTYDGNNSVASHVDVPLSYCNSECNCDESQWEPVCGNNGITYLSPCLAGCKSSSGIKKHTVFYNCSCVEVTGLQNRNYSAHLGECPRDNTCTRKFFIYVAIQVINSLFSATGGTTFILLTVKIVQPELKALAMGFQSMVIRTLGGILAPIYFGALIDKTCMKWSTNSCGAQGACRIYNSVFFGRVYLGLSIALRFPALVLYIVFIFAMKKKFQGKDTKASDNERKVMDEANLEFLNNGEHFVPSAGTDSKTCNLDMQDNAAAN
Protocol: HEK293-OATP1B1 and OATP1B3 cells were diluted to 1 × 10^6 cells/mL with DMEM supplemented with 1% non-essential amino acid (NEAA), 10% fetal bovine serum (FBS), 1% PS solution (100 U/mL penicillin-G and 100 μg/mL streptomycin), and seeded on a 96-well BioCoat™ poly-d-lysine plate at a density of 1 × 10^6 cells/mL. […] Once the cells were anchored on the plate, the cell culture was replaced with DMEM containing 10% FBS and 1% PS solution (100 U/mL penicillin-G and 100 μg/mL streptomycin solution) and cultured one day for the uptake and inhibition studies. The cell culture medium was removed from the 96-well plate, then rinsed twice with 0.1 mL/well of pre-warmed transport buffer. The transporter cells containing pre-incubation solution were pre-incubated at 37 °C for 30 min. Then the pre-incubation solution was removed and replaced with 0.1 mL/well of dosing solution containing a substrate, respectively (blank transporter buffer containing a substrate, transport buffer containing a substrate and PC, and transport buffer containing a substrate and salidroside). Then, the transporter cells were incubated at 37 °C for 2 min. After incubation, all solutions in the cells were discarded and rinsed with 0.10 mL/well of ice-cold transport buffer (4 °C) three times. […] All samples were shaken and centrifuged at 4000 rpm at 4 °C for 15 min and the supernatant was removed for future analysis by LC-MS/MS.
as §2

OC[C@H]1O[C@@H](OCCc2ccc(O)cc2)[C@H](O)[C@@H](O)[C@@H]1O [Salidroside]
fraction unbound at 5 h, 5 µM [1]: 0.856
decrease of losartan AUC0-∞ [2]: ≈ 2 fold
decrease of midazolam AUC0-∞ [2]: ≈ 2 fold
IC50 [3]: > 50 µM
fold induction at 48 h, 0.1 µM [4]: 0.87
fold induction at 48 h, 1 µM [4]: 0.58
fold induction at 48 h, 10 µM [4]: 0.87
% of Positive Control ([4]; 0.1 µM): −3%
Mean Enzyme Activity ([4]; 0.1 µM): 0.77 pmol/10^6 cells/min
% of Positive Control ([4]; 1 µM): −9%
Mean Enzyme Activity ([4]; 1 µM): 0.51 pmol/10^6 cells/min
% of Positive Control ([4]; 10 µM): −3%
Mean Enzyme Activity ([4]; 10 µM): 0.76 pmol/10^6 cells/min
fold induction at 48 h, 0.1 µM [5]: 0.8
fold induction at 48 h, 1 µM [5]: 0.66
fold induction at 48 h, 10 µM [5]: 0.76
% of Positive Control ([5]; 0.1 µM): −8%
Mean Enzyme Activity ([5]; 0.1 µM): 2.18 pmol/10^6 cells/min
% of Positive Control ([5]; 1 µM): −13%
Mean Enzyme Activity ([5]; 1 µM): 1.81 pmol/10^6 cells/min
% of Positive Control ([5]; 10 µM): −9%
Mean Enzyme Activity ([5]; 10 µM): 2.08 pmol/10^6 cells/min
IC50 [6]: > 50 µM
IC50 Shift [7]: no shift
IC50 [8]: > 100 µM
mean control activities (% of control activity) / inhibition of OATP1B3 ([8]; 100 µM): unchanged; also recorded: no inhibition
